Marks after values point to notes of the source that are not given here.
Columns and labels:
gastric mucosa [1] = assay: Gastric tolerability (method of Pisanti and Volterra); conditions: fasting rats, 12 animals
Description: (§3) Male rats of S-D strain, weighing 180-200 g and fasting for 48 hours with free access to water, have been used. The product under exam have been administered by intraperitoneal routes : twice (after 24 and 31 hours from the beginning of the fasting period) at the single dose of 100 mg/kg; or three times by oral route (9.24 and 31 hours after the beginning of the fasting period) at the single dose of 150 mg/kg.

carrageenin edema = assay: Antiinflammatory activity, carrageenin edema test (method of Winter); format: in vivo; conditions: rat; for % INHIBITION / EDEMA VOLUME Final value: 50 mg/kg oral 30 minutes before carrageenin, measured 3 hours after induction; for EDEMA VOLUME Basal value: 50 mg/kg oral
Description: The antiinflammatory activity of MR 549 has been assessed by the carrageenin edema test in the rat according to the method of Winter et al. (Proc. Soc. Exp. Biol. Med., 1962, III, 544).
The product under exam and indomethaoin at equiponderant doses have been administered by the oral route 30 minutes before of the subplantar carragee ning injection; pletismographic measures of the edemas have been performed 3 hours after they had been induced.

[2] = test system: whrithing by phenylquinone; assay: Analgesic activity, writhing by phenylquinone (method of Siegmund); format: in vivo; conditions: mice
motor activity = assay: Spontaneous motor activity; format: in vivo; conditions: Swiss mouse, 50 mg/kg i.p.
Description: The effect of MR 549 on the motor activity has been studied in the Swiss mouse, by placing two groups of animals in a box connected with a recorder detec ting spontaneous motility. On the basis of movemen- ts/minute recorded, MR 549 at the dose of 50 mg/kg i.p. has been administered to one group and the ac tivity has been recorded during the 2 hours following treatment; the second group, treated with the solvent alone, has been used as control group.

[3] = Acute toxicity after single administration, rat; conditions: in vivo
Excerpt: (§1) The toxicity after single administrations of MR 549 has been studied in mice and rats by the oral and intraperitoneal routes.
(§2) The LD50 values have been calculated according to the method of Litchfield and Wilooxon (J. Pharm. Exp. Therap., 1949, 96, 99).

[4] = Acute toxicity after single administration, mouse; format: in vivo; conditions: in vivo, mouse, single administration
Excerpt: as §1, §2

mouse = assay: Acute toxicity after single administration, mouse; format: in vivo; conditions: mice and rats, oral and intraperitoneal routes
Excerpt: as §1, §2

gastric mucosa [5] = conditions: rat, in vivo, po
Description: as §3

[6] = 50 mg/kg os, 30 minutes before phenylquinone injection

SMILES: CCCCC1C(=O)N(c2ccccc2)N(c2ccccc2)C1=O [Phenylbu-tazone, phenylbutazone]
- % ANIMALS WITH ULCERS (gastric mucosa [1]; 100 mg X 2 i.p.): 83.30%
- N° ANIMALS WITH ULCERS (gastric mucosa [1]; 100 mg X 2 i.p.): 10*
- animals died during treatment (gastric mucosa [1]; 100 mg X 2 i.p.): * an animal died during treatment
- % ANIMALS WITH ULCERS (gastric mucosa [1]; 150 mg X 3 os): 91.67%
- N° ANIMALS WITH ULCERS (gastric mucosa [1]; 150 mg X 3 os): 11**
- animals died during treatment (gastric mucosa [1]; 150 mg X 3 os): ** two animals died during treatment.

SMILES: COc1ccc2c(c1)c(CC(=O)O)c(C)n2C(=O)c1ccc(Cl)cc1 [INDO-METHACINE, indomethacin, reference compound]
- % INHIBITION (carrageenin edema): 53.2%
- EDEMA VOLUME Final value (carrageenin edema): 29.6
- EDEMA VOLUME Basal value (carrageenin edema): 22.5

SMILES: CC(=O)Oc1ccccc1C(=O)O [ACETYL-SALICYLIC ACID, acetylsalicylic acid, reference compound]
- % INHIBITION IN COMPARISON WITH CONTROLS ([2]; 100 mg/kg os): 79.6%
- N° CONTORSIONS X̄ ± e.s. ([2]; 100 mg/kg os): 3.9 ± 1.93
- N° WHRITHING ANIMALS/TOTAL N& ([2]; 100 mg/kg os): 12/20

SMILES: Cc1cccnc1NC(=O)C1(c2ccccc2)CCCC1 [MR 549, 2-[(1-phenyl)cyclopentyl-carbonyl]-amino-3-methylpyridine]
- N° recorded movements/min. (motor activity; 15'): 42 movements/min.
- N° recorded movements/min. (motor activity; 30'): 52 movements/min.
- N° recorded movements/min. (motor activity; 60'): 39 movements/min.
- N° recorded movements/min. (motor activity; 90'): 52 movements/min.
- N° recorded movements/min. (motor activity; Time: 0): 45 movements/min.
- LD50 ([3]; ip): 600 mg/kg
- LD50 ([3]; po, os): 1100 mg/kg
- LD50 ([4]; ip): 300 mg/kg
- LD50 ([4]; po, os): 550 mg/kg
- acute toxicity (verbal summary) (mouse): very low acute toxicity
- % INHIBITION (carrageenin edema): 38.1%
- EDEMA VOLUME Final value (carrageenin edema): 31.8
- EDEMA VOLUME Basal value (carrageenin edema): 22.6
- gastrolesive action (verbal summary) (gastric mucosa [5]): clearly lower than phenylbutazone
- % INHIBITION IN COMPARISON WITH CONTROLS [2, 6]: 63.9%
- N° CONTORSIONS X̄ ± e.s. [2, 6]: 6.9 ± 2.24
- N° WHRITHING ANIMALS/TOTAL N& [2, 6]: 14/20
